Experimental data from patent publication US10000499B2, “Methyl diazepane orexin receptor antagonists” (MERCK SHARP & DOHME CORP., priority 2014, dated 2018).
pIC50: −log10 of the molar value. Read-outs that look alike come from different tables or passages of the source.

Experiments:
human orexin-2 receptor = target: T1, human orexin-2 receptor (Homo sapiens, UniProt O43614); experiment: FLIPR Ca2+ flux assay, OX2R; assay type: cell-based; details: for Fold Selective: OX2R over OX1R, from FLIPR values
T1 construct: expressed in transfected cells; host or cells: CHO cells (grown under G418 selection)
T1 sequence (O43614 1-444): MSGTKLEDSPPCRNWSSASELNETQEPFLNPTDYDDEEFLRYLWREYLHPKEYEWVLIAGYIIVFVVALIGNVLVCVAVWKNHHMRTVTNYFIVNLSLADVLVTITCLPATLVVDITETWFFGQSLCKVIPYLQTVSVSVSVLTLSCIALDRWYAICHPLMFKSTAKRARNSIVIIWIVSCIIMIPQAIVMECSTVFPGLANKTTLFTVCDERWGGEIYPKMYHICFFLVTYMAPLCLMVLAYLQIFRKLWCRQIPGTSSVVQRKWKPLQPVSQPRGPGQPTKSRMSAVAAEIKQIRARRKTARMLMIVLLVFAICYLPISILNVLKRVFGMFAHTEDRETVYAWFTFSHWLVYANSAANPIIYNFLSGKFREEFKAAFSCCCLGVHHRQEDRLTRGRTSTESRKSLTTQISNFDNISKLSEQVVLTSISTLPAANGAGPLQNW
Method: (§1) For intracellular calcium measurements, Chinese hamster ovary (CHO) cells expressing the rat orexin-1 receptor or the human orexin-2 receptor, are grown in Iscove's modified DMEM containing 2 mM L-glutamine, […], 1% hypoxanthine-thymidine supplement, 100 U/ml penicillin, 100 μg/ml streptomycin and 10% heat-inactivated fetal calf serum (FCS). The cells are seeded at 20,000 cells/well into Becton-Dickinson black 384-well clear bottom sterile plates coated with poly-D-lysine. All reagents were from GIBCO-Invitrogen Corp. The seeded plates are incubated overnight at 37° C. and 5% CO2. Ala-6,12 human orexin-A as the agonist is prepared as a 1 mM stock solution in 1% bovine serum albumin (BSA) and diluted in assay buffer (HBSS containing 20 mM HEPES, 0.1% BSA and 2.5 mM probenecid, pH7.4) for use in the assay at a final concentration of 70 pM. Test compounds are prepared as 10 mM stock solution in DMSO, then diluted in 384-well plates, first in DMSO, then assay buffer. On the day of the assay, cells are washed 3 times with 100 μl assay buffer and then incubated for 60 min (37° C., 5% CO2) in 60 μl assay buffer containing 1 μM Fluo-4AM ester, 0.02% pluronic acid, and 1% BSA, The dye loading solution is then aspirated and cells are washed 3 times with 100 μl assay buffer, 30 μl of that same buffer is left in each well. Within the Fluorescent Imaging Plate Reader (FLIPR, Molecular Devices), test compounds are added to the plate in a volume of 25 μl, incubated for 5 min and finally 25 μl of agonist is added. Fluorescence is measured for each well at 1 second intervals for 5 minutes and the height of each fluorescence peak is compared to the height of the fluorescence peak induced by 70 pM Ala-6,12 orexin-A with buffer in place of antagonist. […] The intrinsic orexin receptor antagonist activity of a compound which may be used in the present invention may be determined by these assays.

rat orexin-1 receptor = target: T2, rat orexin-1 receptor (Rattus norvegicus, UniProt P56718); experiment: FLIPR Ca2+ flux assay, OX1R; assay type: cell-based; details: CHO cells expressing rat orexin-1 receptor; agonist 70 pM Ala-6,12 orexin-A
T2 construct: expressed in transfected cells; host or cells: CHO cells (grown under G418 selection)
T2 sequence (P56718 1-416): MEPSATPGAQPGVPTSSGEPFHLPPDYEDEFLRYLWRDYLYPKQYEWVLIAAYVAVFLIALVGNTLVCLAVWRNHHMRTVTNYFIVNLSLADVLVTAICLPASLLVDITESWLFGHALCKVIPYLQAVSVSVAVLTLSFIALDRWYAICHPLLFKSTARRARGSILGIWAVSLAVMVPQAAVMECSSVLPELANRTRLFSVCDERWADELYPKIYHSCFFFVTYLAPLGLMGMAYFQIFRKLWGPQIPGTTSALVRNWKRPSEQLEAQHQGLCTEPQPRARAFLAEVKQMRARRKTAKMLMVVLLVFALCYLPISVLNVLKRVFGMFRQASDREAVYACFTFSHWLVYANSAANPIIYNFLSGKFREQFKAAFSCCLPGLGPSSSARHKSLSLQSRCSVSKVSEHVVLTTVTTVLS
Method: as §1

[1] = CHO cells expressing human orexin-2 receptor, agonist 70 pM Ala-6,12 orexin-A, read-out: OX2R FLIPR

SMILES | pIC50 (human orexin-2 receptor) | Fold Selective (human orexin-2 receptor) | pIC50 (rat orexin-1 receptor) | pIC50 (human orexin-2 receptor; [1]) | selectivity between orexin-2 receptor and orexin-1 receptor (in words) (human orexin-2 receptor; comparison with diazepane compounds of U.S. Pat. No. 8,685,961)
Cc1ccnc(N2CC[C@@H](C)N(C(=O)c3ccccc3-n3nccn3)CC2)c1 [Example 1, (R)-(2-(2H-1,2,3-triazol-2-yl)phenyl)(7-methyl-4-(4-methylpyridin-2-yl)-1,4-diazepan-1-yl)methanone] | 6.83 | 68 | < 5.00 | – | –
COc1ccnc(N2CC[C@@H](C)N(C(=O)c3ccccc3-n3nccn3)CC2)c1 [Example 2, (R)-(2-(2H-1,2,3-triazol-2-yl)phenyl)(4-(4-methoxypyridin-2-yl)-7-methyl-1,4-diazepan-1-yl)methanone] | – | 57 | 5.59 | 7.35 | –
COc1ccnc(N2CC[C@@H](C)N(C(=O)c3ccsc3-n3nccn3)CC2)c1 [Example 3, (R)-(2-(2H-1,2,3-triazol-2-yl)thiophen-3-yl)(4-(4-methoxypyridin-2-yl)-7-methyl-1,4-diazepan-1-yl)methanone] | – | 82 | < 5.00 | 6.91 | –
COc1ccnc(N2CC[C@@H](C)N(C(=O)c3ccccc3C3(C#N)CC3)CC2)c1 [Example 4, 1-(2-{[(7R)-4-(4-methoxypyridin-2-yl)-7-methyl-1,4-diazepan-1-yl]carbonyl}phenyl)cyclopropane-carbonitrile] | – | 61 | < 5.00 | 6.79 | –
COc1ccnc(N2CC[C@@H](C)N(C(=O)c3cccnc3-n3cccn3)CC2)c1 [Example 5, (5R)-1-(4-methoxypyridin-2-yl)-5-methyl-4-{[2-(1H-pyrazol-1-yl)pyridin-3-yl]carbonyl}-1,4-diazepane] | – | 97 | < 5.00 | 6.99 | –
COc1ccnc(N2CC[C@@H](C)N(C(=O)c3cccnc3OCC(F)F)CC2)c1 [Example 6, (5R)-4-{[2-(2,2-difluoroethoxy)pyridin-3-yl]carbonyl}-1-(4-methoxypyridin-2-yl)-5-methyl-1,4-diazepane] | – | 54 | < 5.00 | 6.74 | –
COc1ccnc(N2CC[C@@H](C)N(C(=O)c3cccnc3OCC(F)(F)F)CC2)c1 [Example 7, (5R)-1-(4-methoxypyridin-2-yl)-5-methyl-4-{[2-(2,2,2-trifluoroethoxy)pyridin-3-yl]carbonyl}-1,4-diazepane] | – | 108 | < 5.00 | 7.04 | –
COc1ccnc(N2CC[C@@H](C)N(C(=O)c3ccccc3C3CCC3)CC2)c1 [Example 8, (5R)-4-[(2-cyclobutylphenyl)carbonyl]-1-(4-methoxypyridin-2-yl)-5-methyl-1,4-diazepane] | – | 81 | < 5.00 | 6.91 | –
COc1ccnc(N2CC[C@@H](C)N(C(=O)c3ccccc3C3CC3)CC2)c1 [Example 9, (5R)-4-[(2-cyclopropylphenyl)carbonyl]-1-(4-methoxypyridin-2-yl)-5-methyl-1,4-diazepane] | – | 80 | < 5.00 | 6.90 | –
CCC(=O)N(C)c1cccc(N2CC[C@@H](C)N(C(=O)c3ccccc3-n3nccn3)CC2)n1 [Example 10, (R)-N-(6-(4-(2-(2H-1,2,3-triazol-2-yl)benzoyl)-5-methyl-1,4-diazepan-1-yl)pyridin-2-yl)-N-methylpropionamide] | – | – | < 5.00 | – | –
C[C@@H]1CCN(c2cccc(N3CCN(C)C3=O)n2)CCN1C(=O)c1ccccc1-n1nccn1 [Example 11, 1-methyl-3-{6-[(5R)-5-methyl-4-{[2-(2H-1,2,3-triazol-2-yl)phenyl]carbonyl}-1,4-diazepan-1-yl]pyridin-2-yl}imidazolidin-2-one] | – | 46 | 5.32 | 6.98 | –
CC(=O)N(C)c1cccc(N2CC[C@@H](C)N(C(=O)c3ccccc3-n3nccn3)CC2)n1 [Example 12, N-methyl-N-{6-[(5R)-5-methyl-4-{[2-(2H-1,2,3-triazol-2-yl)phenyl]carbonyl}-1,4-diazepan-1-yl]pyridin-2-yl}acetamide] | – | 117 | < 5.00 | 7.07 | –
CCN(C(C)=O)c1cccc(N2CC[C@@H](C)N(C(=O)c3ccccc3-n3nccn3)CC2)n1 [Example 13, N-ethyl-N-{6-[(5R)-5-methyl-4-{[2-(2H-1,2,3-triazol-2-yl)phenyl]carbonyl}-1,4-diazepan-1-yl]pyridin-2-yl}acetamide] | – | 149 | < 5.00 | 7.17 | –
C[C@@H]1CCN(c2cccc(N3CCN(C)C3=O)n2)CCN1C(=O)c1cccc(F)c1-n1nccn1 [Example 14, 1-{6-[(5R)-4-{[3-fluoro-2-(2H-1,2,3-triazol-2-yl)phenyl]carbonyl}-5-methyl-1,4-diazepan-1-yl]pyridin-2-yl}-3-methylimidazolidin-2-one] | – | 55 | 5.50 | 7.24 | –
C[C@@H]1CCN(c2cccc(N3CCN(C)C3=O)n2)CCN1C(=O)c1cc(F)ccc1-n1nccn1 [Example 16, 1-{6-[(5R)-4-{[5-fluoro-2-(2H-1,2,3-triazol-2-yl)phenyl]carbonyl}-5-methyl-1,4-diazepan-1-yl]pyridin-2-yl}-3-methylimidazolidin-2-one] | – | 50 | < 5.00 | 6.71 | –
CC(C)C(=O)N(C)c1cccc(N2CC[C@@H](C)N(C(=O)c3ccccc3-n3nccn3)CC2)n1 [Example 17, N,2-dimethyl-N-{6-[(5R)-5-methyl-4-{[2-(2H-1,2,3-triazol-2-yl)phenyl]carbonyl}-1,4-diazepan-1-yl]pyridin-2-yl}propanamide] | – | 208 | < 5.00 | 7.32 | –
C[C@@H]1CCN(c2cccc(N(C)C(=O)C3CC3)n2)CCN1C(=O)c1ccccc1-n1nccn1 [Example 18, N-methyl-N-{6-[(5R)-5-methyl-4-{[2-(2H-1,2,3-triazol-2-yl)phenyl]carbonyl}-1,4-diazepan-1-yl]pyridin-2-yl}cyclopropanecarboxamide] | – | 128 | 5.04 | 7.15 | –
CC(O)c1cccc(N2CC[C@@H](C)N(C(=O)c3ccccc3-n3nccn3)CC2)n1 (stereo partly drawn) [Example 19, (2-(2H-1,2,3-triazol-2-yl)phenyl)((7R)-4-(6-(1-hydroxyethyl)pyridin-2-yl)-7-methyl-1,4-diazepan-1-yl)methanone] | – | 127 | 5.59 | 7.70 | –
C[C@@H]1CCN(c2cccc(C(C)(C)O)n2)CCN1C(=O)c1ccccc1-n1nccn1 [Example 20, (R)-(2-(2H-1,2,3-triazol-2-yl)phenyl)(4-(6-(2-hydroxypropan-2-yl)pyridin-2-yl)-7-methyl-1,4-diazepan-1-yl)methanone] | – | 61 | 5.71 | 7.49 | –
C[C@@H]1CCN(c2nccn3ccnc23)CCN1C(=O)c1ccccc1C1(C#N)CC1 [Example 21, (R)-1-(2-(4-(imidazo[1,2-a]pyrazin-8-yl)-7-methyl-1,4-diazepane-1-carbonyl)phenyl)cyclopropanecarbonitrile] | – | 153 | < 5.00 | 7.19 | –
Cc1ccc(-n2nccn2)c(C(=O)N2CCCN(c3nc4ccccc4o3)CC2)c1 [Example B-3, reference compound] | – | – | – | – | greater selectivity for the orexin-1 receptor than for the orexin-2 receptor
